Tests used:
HaCaT cells [1] = test: Cell migration of keratinocytes, Euodia sutchuenensis Dode extract and indirubin derivative mixtures (Test Example 5); assay type: cell-based, human; settings: 18 hours
Procedure: Cell migration was compared after treating cells with the indirubin derivative of Example 1 (0.1 μM, 1 μM), the indirubin derivative of Example 2 (0.1 μM, 1 μM) or the mixtures of Examples 12 and 13 (0.1 μM and 1 μM indirubin derivative mixed with 1 μg/mL Euodia sutchuenensis Dode extract, respectively).
A non-treated control group (con), a group treated with the Euodia sutchuenensis Dode extract of Example 8 (1 μg/mL) alone (Euodia sutchuenensis Dode 1 μg/mL) and a positive control group treated with 100 μM VPA (valproic acid) were prepared.
Experiment was conducted as follows. First, HaCaT cells were cultured in a 12-well plate for 24 hours. The HaCaT cells are human keratinocytes which are known to play an important role in wound healing. DMEM containing 10% FBS was used. After the culturing for 24 hours was completed, the medium was replaced with DMEM containing 5% FBS and a scratch was made at the center of the cells using a 1000p (blue) tip. Then, after treating the scratched area with a sample, cell migration and motility was observed 18 hours later.
As the sample, the indirubin derivative of Example 1 (0.1 μM, 1 μM), the indirubin derivative of Example 2 (0.1 μM, 1 μM) or the mixtures of Examples 12 and 13 (0.1 μM and 1 μM indirubin derivative mixed with 1 μg/mL Euodia sutchuenensis Dode extract, respectively) was used. […]

mouse acute wound [2] = test: Wound healing effect of extract and indirubin derivative mixtures in mouse acute wound (Test Example 6); assay type: in vivo; settings: mouse acute wound tissue, fluorescence staining
Procedure: Wound healing-promoting effect was investigated after treating an animal model with the indirubin derivative of Example 1 (0.5 mM), the indirubin derivative of Example 2 (0.5 mM) or the mixtures of Examples 12 and 13 (0.5 mM indirubin derivative mixed with 1 μg/mL Euodia sutchuenensis Dode extract).
The hair on the back of 7-week-old C3H mouse that entered the resting period was removed and a 1.5×1.5 cm^2 wound was made on the hair-removed region. A sample was applied to a positive control group, once daily for 12 days. After measuring wound size of the experimental animal on days 0 and 12, the wound tissue was fixed by immersing in 4% paraformaldehyde, embedded in paraffin and then sliced into 4 μm thickness. The sliced tissue was deparaffinized, rehydrated and then the degree of re-epithelialization was compared. Masson's trichrome staining and Picrosirius red staining were conducted for evaluation of the degree of collagen synthesis. For Masson's trichrome staining, a slide was immersed in Weigert's iron hematoxylin solution for 10 minutes and in Biebrich scarlet-acid fuchsin and aniline blue for 5 minutes each. […] The sliced skin tissue was fluorescence-stained using β-catenin, PCNA, keratin 14 and collagen I antibodies and was observed using a fluorescence microscope (FIG. 9a). […]

mouse acute wound [3] = test: Wound healing and collagen synthesis in mouse acute wound (Test Example 2); assay type: in vivo
Procedure: The wound healing-promoting effect of the indirubin derivatives prepared in Examples 1 and 2, the indirubin derivative of Comparative Example 1 (10) and EGF, known as an existing wound healing agent, as a positive control group was investigated through animal experiments.
The hair on the back of 7-week-old C3H mouse that entered the resting period was removed and a 1.5×1.5 cm^2 wound was made on the hair-removed region. 20 μL of a vehicle (10% DMSO, 45% ethanol, 18% propylene glycol, 27% water) and the indirubin derivative of Comparative Example 1 (10) were applied to a control group and a comparison group, respectively, once daily for 12 days. For the positive control group, 100 μM EGF was applied once daily for 12 days. For a first test group, 20 μL of the indirubin derivative of Example 2 (A3051) was applied once daily for 12 days. For a second test group, 20 μL of the indirubin derivative of Example 1 (A3334) was applied once daily for 12 days.
The tissue of each experimental mouse was fixed by immersing in 4% paraformaldehyde, embedded in paraffin and then sliced into 4 μm thickness. The sliced tissue was deparaffinized, rehydrated and then stained with Masson's trichrome and Picrosirius red for evaluation of the degree of collagen synthesis. For Masson's trichrome staining, a slide was placed in Weigert's iron hematoxylin solution for 10 minutes and in Biebrich scarlet-acid fuchsin and aniline blue for 5 minutes each. For Picrosirius red staining, a slide was placed in Weigert's solution for 8 minutes and in Picrosirius red for 1 hour.

diabetic wound = test: Effect of treating diabetic wound (Test Example 9); assay type: in vivo; settings: diabetes-induced mouse; for healing of the wound site: 0.8×0.8 cm^2 wound, 20 μL once daily for 14 days, VPA 500 mM; for re-epithelialization (H&E): 14 days
Procedure: 3-week-old male C57BL/6N mice (Koatech, South Korea) were used. After accustoming the mice for a week to normal feed, high-fat diet (Product Data—D12492; 60% kcal, hereinafter referred to as HFD) was given for 4 weeks. Then, a diabetes-induced animal model was prepared by intraperitoneally injecting 40 mg/kg streptozocin (Sigma) once daily for a week. The mice were kept in cages maintained at constant temperature (22±2° C.) and relative humidity (40-60%) with light/dark cycles of 12/12 hours.
6 mice of the normal control group and 6 mice per test group of the diabetes-induced animal model of Test Example 7 were prepared. The hair on the back was removed and a 0.8×0.8 cm^2 wound was made on the hair-removed region.
For the normal control group, only 20 μL of an emulsion solution (Kollipore®EL:Tween 80:PEG 400 at a mixing weight ratio of 80:6:14) was applied to the wound site once daily for 14 days. For the negative control group, only 20 μL of the emulsion solution (Kollipore®EL:Tween 80:PEG 400 at a mixing weight ratio of 80:6:14) was applied to the wound site once daily for 14 days. For the positive control group (VPA), 20 μL of a composition prepared by mixing 500 mM VPA in an emulsion solution was applied to the wound site once daily for 14 days.
For the first test group, 20 μL of A3334 (Example 1) was applied to the wound site once daily for 14 days. For the second test group, 20 μL of A3051 (Example 2) was applied to the wound site once daily for 14 days. Then, the wound site of each group was photographed and the wound area was measured (FIG. 14). On day 14, after euthanizing the mouse with carbon dioxide, the wound site tissue was harvested and the histological structure was observed.
Specifically, the wound site tissue obtained from the normal control group, the negative control group, the positive control group or the first or second test group was fixed by immersing in 4% paraformaldehyde, embedded in paraffin and then sliced into 4 μm thickness. The sliced tissue was deparaffinized, rehydrated and then stained with hematoxylin (purple) and eosin (pink) for observation of histological structure.
Specifically, the wound site tissue obtained from the normal control group, the negative control group, the positive control group or the first or second test group was fixed by immersing in 4% paraformaldehyde, embedded in paraffin and then sliced into 4 μm thickness. The sliced tissue was deparaffinized, rehydrated and then stained with Van Gieson's stain and Masson's trichrome for observation of histological structure. For the Van Gieson's staining, the sliced tissue was immersed in Weigert's solution for 10 minutes and in picrofuchsin solution for 2 minutes. For the Masson's trichrome staining, the sliced tissue was immersed in Weigert's iron hematoxylin solution for 10 minutes and in Biebrich scarlet-acid fuchsin and Aniline blue for 5 minutes each.
Specifically, the wound site tissue obtained from the normal control group, the negative control group, the positive control group or the first and second test groups was fixed by immersing in 4% paraformaldehyde and angiogenesis was observed.

mouse acute wound [4] = test: Wound healing effect of mixtures in mouse acute wound (Test Example 4); assay type: in vivo; settings: C3H mouse; Example 2 0.5 mM, Example 5 2.5 mM, 5 mM; 20 μL once daily for 12 days
HaCaT cells [5] = test: Cell motility of keratinocytes, indirubin derivative and low-molecular-weight compound mixtures (Test Example 3); assay type: cell-based, human; settings: HaCaT scratch; 18 hours later; methyl vanillate 5 μM, hesperidin 1 μM, quercitrin 1 μM
Procedure: For analysis of wound healing effect, cell motility was compared for treatment with the indirubin derivative prepared in Example 2, the methyl vanillate of Example 5, the hesperidin of Example 6, the quercitrin of Example 7 and the mixtures prepared in Examples 9-11.
HaCaT cells, which are human keratinocytes playing an important role in wound healing, were cultured in a 12-well plate for 24 hours using DMEM containing 10% FBS. Then, after replacing the medium with DMEM containing 5% FBS, a scratch was made at the center of the cells using a 1000p (blue) tip. Then, after treating the scratched area with each of the indirubin derivative prepared in Example 2, the methyl vanillate of Example 5, the hesperidin of Example 6, the quercitrin of Example 7 and the mixtures prepared in Examples 9-11 at a concentration of 1 μM or 5 μM, cell motility was observed 18 hours later.
Specifically, the concentration of the indirubin derivative prepared in Example 2, the hesperidin of Example 6 and the quercitrin of Example 7 was 1 μM, the concentration of the methyl vanillate of Example 5 was 5 μM, and the mixtures prepared in Examples 9-11 were prepared by mixing 1 μM indirubin derivative with 5 μM methyl vanillate, 1 μM hesperidin or 1 μM quercitrin.
The control group (control) means non-treated keratinocytes. […]

[6] = C3H mouse acute wound, once daily for 12 days, vs EGF

CO/N=C1/C(=C2/C(=O)Nc3cc(Cl)c(Cl)cc32)Nc2ccccc21 [Example 2, 5,6-dichloroindirubin-3′-methoxime]
recovery of cell migration rate (%) as compared to the control group (HaCaT cells [1]; first value of 'respectively' (0.1 μM indirubin derivative; mixture with 1 μg/mL extract)): 50%
recovery of cell migration rate (%) as compared to the control group (HaCaT cells [1]; second value of 'respectively' (1 μM indirubin derivative; mixture with 1 μg/mL extract)): 114%
expression of β-catenin, PCNA, keratin 14 and collagen I (mouse acute wound [2]): slightly lower as compared to the positive control group
quantity of collagen (Masson's trichrome, Picrosirius red, van Gieson's stain) (mouse acute wound [3]; C3H mouse acute wound tissue, vs control group, Comparative Example 1, positive control group): remarkably increases the quantity of collagen
re-epithelialization of acute wound (mouse acute wound [3]; [6]): re-epithelialized comparably to or faster than the positive control group EGF
scar-reducing effect, repair of the epidermal layer of skin (mouse acute wound [3]; [6]): very effective in reducing scarring
wound repair effect as compared to the positive control group EGF (mouse acute wound [3]; C3H mouse, 1.5×1.5 cm^2 wound, 20 μL once daily for 12 days, EGF 100 μM): 2-6 times
angiogenesis around the wound site (diabetic wound): increased angiogenesis
healing of the wound site (diabetic wound): healing of the wound site was promoted similarly to the normal control group
re-epithelialization (H&E) (diabetic wound): re-epithelialization occurred quickly
collagen synthesis (Van Gieson's stain, Masson's trichrome) (diabetic wound; vs normal, negative and positive control group (VPA)): increased collagen synthesis
acute wound healing as compared to the control group or the positive control group (mouse acute wound [4]): healed quickly

COc1ccc([C@@H]2CC(=O)c3c(O)cc(O[C@@H]4O[C@H](CO[C@@H]5O[C@@H](C)[C@H](O)[C@@H](O)[C@H]5O)[C@@H](O)[C@H](O)[C@H]4O)cc3O2)cc1O [Example 6, Hesperidin]
cell motility compared with the control group (HaCaT cells [5]): no difference in cell motility

CCCC(CCC)C(=O)O [VPA, valproic acid, reference compound]
healing of the wound site (diabetic wound): wound healing was delayed similarly to the negative control group
re-epithelialization (H&E) (diabetic wound): re-epithelialization did not occur even after 14 days

COC(=O)c1ccc(O)c(OC)c1 [Example 5, Methyl vanillate, reference compound]
acute wound healing as compared to the control group or the positive control group (mouse acute wound [4]): healed quickly
cell motility compared with the control group (HaCaT cells [5]): no difference in cell motility
